As usually defined, the mass density is mass per unit of volume. As a reminder, the vapor or sublimation pressure is the pressure of vapour in equilibrium with the condensed phase. As a reminder, the refractive index is a measure of how strongly the sample bends light.

The values below come from the NIST ThermoML archive (doi:10.1021/je0505366).

Structures are written as SMILES. ± gives the expanded uncertainty stated by the source.

For series [1] the following is noted: Liquid; for mass density: 101.33 kPa; for vapor or sublimation pressure: 383.15 K, Ebulliometric method (Recirculating still).
A short description of series [2]: refractive index (Na D-line) (dimensionless). Conditions: 101.33 kPa, Liquid, Standard Abbe refractometry.

As for `Nc1ccccc1` [aniline], in series [1] (293.15 K), the mass density worked out at 1021.72 ± 0.18 kg/m3. In addition, the “vapor or sublimation pressure” value in series [1] turned out to be 9.21 ± 0.02 kPa. The refractive index in series [2] (293.15 K) amounted to 1.5862 ± 0.0007.
Regarding `NC1CCCCC1` [cyclohexylamine], the mass density in series [1] (303.15 K) was 858.2 ± 0.23 kg/m3. Besides, in series [2] (288.15 K), the refractive index worked out at 1.4624 ± 0.0007.
As for `CCCCCCCC` [octane], the mass density in series [1] (298.15 K) was found to be 698.49 ± 0.39 kg/m3. Moreover, the “vapor or sublimation pressure” value in series [1] is on record as 64.09 ± 0.07 kPa. Moreover, in series [2] (298.15 K), the refractive index is recorded as 1.3946 ± 0.0007.
With `Cc1ccccc1` [toluene], in series [1] (293.15 K), the mass density turned out to be 866.78 ± 0.23 kg/m3. Also, the refractive index in series [2] (293.15 K) worked out at 1.496 ± 0.0007.
As for `O` [water], the refractive index in series [2] (293.15 K) is listed as 1.3336 ± 0.0007.
